We go through 27 compounds from patent publication US20240376084A1, “INHIBITORS OF ALPHA-HEMOLYSIN OF STAPHYLOCOCCUS AUREUS” (Helmholtz-Zentrum Fur Infektionsforschung GmbH, priority 2021, published 2024).

SMILES strings stand for the structures. Some results are limits rather than exact numbers.

Experiment [1] addresses S. aureus Alpha hemolysin (Staphylococcus aureus, UniProt P09616). In words: cell-based. Particulars: A549-LDH Assay activity.
The target of experiment [2] is hemolysin alpha from Staphylococcus aureus (Staphylococcus aureus, UniProt P09616). The experiment is described as follows: cell-based.
hemolysin alpha from Staphylococcus aureus, sequence (P09616 27-319 limits assumed): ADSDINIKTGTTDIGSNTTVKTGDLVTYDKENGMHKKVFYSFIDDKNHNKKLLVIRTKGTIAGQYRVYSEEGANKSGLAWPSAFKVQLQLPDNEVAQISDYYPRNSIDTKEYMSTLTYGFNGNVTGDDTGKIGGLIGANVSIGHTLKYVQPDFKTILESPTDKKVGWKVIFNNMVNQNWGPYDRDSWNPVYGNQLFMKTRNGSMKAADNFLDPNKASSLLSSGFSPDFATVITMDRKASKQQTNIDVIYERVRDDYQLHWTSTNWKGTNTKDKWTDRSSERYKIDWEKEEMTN

S. aureus Alpha hemolysin, sequence (P09616 27-319 limits assumed): as above

Regarding `Cc1cc2[nH]c(=O)c(=O)[nH]c2cc1S(=O)(=O)Nc1ccc(-c2ccn3ccnc3c2)c(Cl)c1` [Compound 336, N-(3-chloro-4-imidazo[1,2-a]pyridin-7-yl-phenyl)-7-methyl-2,3-dioxo-1,4-dihydroquinoxaline-6-sulfonamide], the EC50 in experiment [1] was 100 to 1000 nM; in experiment [2] it was 30 to 100 nM.
For `Cc1cc2[nH]c(=O)c(=O)[nH]c2cc1S(=O)(=O)Nc1ccc(-c2ccn3ncnc3c2)c(Cl)c1` [Compound 337, N-[3-chloro-4-([1,2,4]triazolo[1,5-a]pyridin-7-yl)phenyl]-7-methyl-2,3-dioxo-1,4-dihydroquinoxaline-6-sulfonamide], in that order: 30 to 100 nM and 30 to 100 nM.
Consider `Cc1cn2ccc(-c3ccc(NS(=O)(=O)c4cc5[nH]c(=O)c(=O)[nH]c5cc4C)cc3Cl)cc2n1` [Compound 338, N-[3-chloro-4-(2-methylimidazo[1,2-a]pyridin-7-yl)phenyl]-7-methyl-2,3-dioxo-1,4-dihydroquinoxaline-6-sulfonamide], for which the concentration giving a half-maximal response (EC50) was 30 to 100 nM in experiment [1] and below 30 nM in experiment [2].
`Cc1cc2[nH]c(=O)c(=O)[nH]c2cc1S(=O)(=O)Nc1ccc(-c2cccc(OC(F)(F)F)c2)c(Cl)c1` [Compound 339, N-[3-chloro-4-[3-(trifluoromethoxy)phenyl]phenyl]-7-methyl-2,3-dioxo-1,4-dihydroquinoxaline-6-sulfonamide]: the EC50 in experiment [1] was 100 to 1000 nM; in experiment [2] it was 30 to 100 nM.
For `Cc1cc2[nH]c(=O)c(=O)[nH]c2cc1S(=O)(=O)Nc1ccc(-c2cn(C)c3ccccc23)c(Cl)c1` [Compound 340, N-[3-chloro-4-(1-methylindol-3-yl)phenyl]-7-methyl-2,3-dioxo-1,4-dihydroquinoxaline-6-sulfonamide], in that order: 1000 to 6000 nM and 100 to 1000 nM.
For `Cc1cc2[nH]c(=O)c(=O)[nH]c2cc1S(=O)(=O)Nc1ccc(-c2ccc3c(c2)CCN3C)c(Cl)c1` [Compound 341, N-[3-chloro-4-(1-methylindolin-5-yl)phenyl]-7-methyl-2,3-dioxo-1,4-dihydroquinoxaline-6-sulfonamide], in that order: 1000 to 6000 nM and 100 to 1000 nM.
For `Cc1cc2[nH]c(=O)c(=O)[nH]c2cc1S(=O)(=O)Nc1ccc(-c2cccc(CN)c2)c(Cl)c1` [Compound 342, N-[4-[3-(aminomethyl)phenyl]-3-chloro-phenyl]-7-methyl-2,3-dioxo-1,4-dihydroquinoxaline-6-sulfonamide], the EC50 lay within 100 to 1000 nM in experiment [1] and 1000 to 3500 nM in experiment [2].
For `Cc1cc2[nH]c(=O)c(=O)[nH]c2cc1S(=O)(=O)Nc1ccc(-c2ccc3c(c2)CCCN3)c(Cl)c1` [Compound 343, N-[3-chloro-4-(1,2,3,4-tetrahydroquinolin-6-yl)phenyl]-7-methyl-2,3-dioxo-1,4-dihydroquinoxaline-6-sulfonamide] the same measures were 100 to 1000 nM and below 30 nM.
On to `COCCn1cc(-c2ccc(NS(=O)(=O)c3cc4[nH]c(=O)c(=O)[nH]c4cc3C)cc2Cl)cn1` [Compound 344, N-[3-chloro-4-[1-(2-methoxyethyl)pyrazol-4-yl]phenyl]-7-methyl-2,3-dioxo-1,4-dihydroquinoxaline-6-sulfonamide], for which the EC50 in experiment [1] was in the range of 1000 to 6000 nM; in experiment [2], 1000 to 3500 nM.
For `COc1ccc(-c2ccc(NS(=O)(=O)c3cc4[nH]c(=O)c(=O)[nH]c4cc3C)cc2C(F)(F)F)cc1F` [Compound 345, N-[4-(3-fluoro-4-methoxy-phenyl)-3-(trifluoromethyl)phenyl]-7-methyl-2,3-dioxo-1,4-dihydroquinoxaline-6-sulfonamide] the same measures were below 30 nM and below 30 nM.
For `CC(=O)Nc1cc(-c2ccc(NS(=O)(=O)c3cc4[nH]c(=O)c(=O)[nH]c4cc3C)cc2C(F)(F)F)ccc1O` [Compound 346, N-[2-hydroxy-5-[4-[(7-methyl-2,3-dioxo-1,4-dihydroquinoxalin-6-yl)sulfonylamino]-2-(trifluoromethyl)phenyl]phenyl]acetamide] the same measures were 100 to 1000 nM and 30 to 100 nM.
For `Cc1cc2[nH]c(=O)c(=O)[nH]c2cc1S(=O)(=O)Nc1ccc(-c2ccc(C#N)cc2)c(C(F)(F)F)c1` [Compound 348, N-[4-(4-cyanophenyl)-3-(trifluoromethyl)phenyl]-7-methyl-2,3-dioxo-1,4-dihydroquinoxaline-6-sulfonamide] the same measures were 100 to 1000 nM and below 30 nM.
For the compound `Cc1cc2ccc(-c3ccc(NS(=O)(=O)c4cc5[nH]c(=O)c(=O)[nH]c5cc4C)cc3Cl)cc2[nH]1` [Compound 349, N-[3-chloro-4-(2-methyl-1H-indol-6-yl)phenyl]-7-methyl-2,3-dioxo-1,4-dihydroquinoxaline-6-sulfonamide], the EC50 in experiment [1] and in experiment [2] was below 30 nM each time.
Regarding `Cc1cc2[nH]c(=O)c(=O)[nH]c2cc1S(=O)(=O)Nc1ccc(-c2ccc3c(c2)NC(=O)C3)c(Cl)c1` [Compound 350, N-[3-chloro-4-(2-oxoindolin-6-yl)phenyl]-7-methyl-2,3-dioxo-1,4-dihydroquinoxaline-6-sulfonamide], the EC50 in experiment [1] and in experiment [2] was 30 to 100 nM in each case.
As for `Cc1cc2[nH]c(=O)c(=O)[nH]c2cc1S(=O)(=O)Nc1ccc(-c2ccc3cccnc3c2)c(Cl)c1` [Compound 351, N-[3-chloro-4-(7-quinolyl)phenyl]-7-methyl-2,3-dioxo-1,4-dihydroquinoxaline-6-sulfonamide], the EC50 in experiment [1] was 100 to 1000 nM; in experiment [2], below 30 nM.
For `Cc1cc2[nH]c(=O)c(=O)[nH]c2cc1S(=O)(=O)Nc1ccc(-c2ccc3c(C)c[nH]c3c2)c(Cl)c1` [Compound 352, N-[3-chloro-4-(3-methyl-1H-indol-6-yl)phenyl]-7-methyl-2,3-dioxo-1,4-dihydroquinoxaline-6-sulfonamide] the same measures were 100 to 1000 nM and 100 to 1000 nM.
With `Cc1cc2[nH]c(=O)c(=O)[nH]c2cc1S(=O)(=O)Nc1ccc(-c2ccc3c(c2)NCCO3)c(Cl)c1` [Compound 353, N-[3-chloro-4-(3,4-dihydro-2H-1,4-benzoxazin-6-yl)phenyl]-7-methyl-2,3-dioxo-1,4-dihydroquinoxaline-6-sulfonamide], the EC50 in experiment [1] lay in the range of 100 to 1000 nM; in experiment [2], 30 to 100 nM.
For `Cc1cc2[nH]c(=O)c(=O)[nH]c2cc1S(=O)(=O)Nc1ccc(-c2ccc3c(c2)N(C)CCO3)c(Cl)c1` [Compound 354, N-[3-chloro-4-(4-methyl-2,3-dihydro-1,4-benzoxazin-6-yl)phenyl]-7-methyl-2,3-dioxo-1,4-dihydroquinoxaline-6-sulfonamide], in that order: 100 to 1000 nM and 30 to 100 nM.
Turning to `Cc1cc2[nH]c(=O)c(=O)[nH]c2cc1S(=O)(=O)Nc1ccc(-c2ccc3c(c2)NC(=O)CO3)c(Cl)c1` [Compound 355, N-[3-chloro-4-(3-oxo-4H-1,4-benzoxazin-6-yl)phenyl]-7-methyl-2,3-dioxo-1,4-dihydroquinoxaline-6-sulfonamide], the EC50 in experiment [1] and in experiment [2] was below 30 nM each time.
As to `Cc1cc2[nH]c(=O)c(=O)[nH]c2cc1S(=O)(=O)Nc1ccc(-c2ccc3c(c2)N(C)C(=O)CO3)c(Cl)c1` [Compound 356, N-[3-chloro-4-(4-methyl-3-oxo-1,4-benzoxazin-6-yl)phenyl]-7-methyl-2,3-dioxo-1,4-dihydroquinoxaline-6-sulfonamide], the values for the EC50 in experiment [1] and in experiment [2] were 30 to 100 nM and below 30 nM, respectively.
Turning to `Cc1cc2[nH]c(=O)c(=O)[nH]c2cc1S(=O)(=O)Nc1ccc(-c2cc(F)c3c(c2)NCCO3)c(Cl)c1` [Compound 357, N-[3-chloro-4-(8-fluoro-3,4-dihydro-2H-1,4-benzoxazin-6-yl)phenyl]-7-methyl-2,3-dioxo-1,4-dihydroquinoxaline-6-sulfonamide], the EC50 in experiment [1] is 100 to 1000 nM; in experiment [2] it was below 30 nM.
For `Cc1cc2[nH]c(=O)c(=O)[nH]c2cc1S(=O)(=O)Nc1ccc(-c2ccc(=O)[nH]c2)c(Cl)c1` [Compound 358, N-[3-chloro-4-(6-oxo-1H-pyridin-3-yl)phenyl]-7-methyl-2,3-dioxo-1,4-dihydroquinoxaline-6-sulfonamide], the EC50 in experiment [1] was in the range of 30 to 100 nM; in experiment [2] it was 100 to 1000 nM.
For `Cc1cc2[nH]c(=O)c(=O)[nH]c2cc1S(=O)(=O)Nc1ccc(-c2ccc3nc[nH]c3c2)c(Cl)c1` [Compound 359, N-[4-(3H-benzimidazol-5-yl)-3-chloro-phenyl]-7-methyl-2,3-dioxo-1,4-dihydroquinoxaline-6-sulfonamide], in that order: 30 to 100 nM and 100 to 1000 nM.
For `Cc1cc2[nH]c(=O)c(=O)[nH]c2cc1S(=O)(=O)Nc1ccc(-c2ccc(C#N)c(N(C)C)c2)c(Cl)c1` [Compound 360, N-[3-chloro-4-[4-cyano-3-(dimethylamino)phenyl]phenyl]-7-methyl-2,3-dioxo-1,4-dihydroquinoxaline-6-sulfonamide], in that order: 100 to 1000 nM and 30 to 100 nM.
In the case of `Cc1nc2ccc(-c3ccc(NS(=O)(=O)c4cc5[nH]c(=O)c(=O)[nH]c5cc4C)cc3Cl)cc2[nH]1` [Compound 361, N-[3-chloro-4-(2-methyl-3H-benzimidazol-5-yl)phenyl]-7-methyl-2,3-dioxo-1,4-dihydroquinoxaline-6-sulfonamide], the EC50 in experiment [1] is below 30 nM; in experiment [2], 30 to 100 nM.
For `Cc1cc2[nH]c(=O)c(=O)[nH]c2cc1S(=O)(=O)Nc1ccc(C2CCC2)cc1` [Compound 362, N-(4-cyclobutylphenyl)-7-methyl-2,3-dioxo-1,4-dihydroquinoxaline-6-sulfonamide] the same measures were 30 to 100 nM and 100 to 1000 nM.
For the compound `Cc1cc2[nH]c(=O)c(=O)[nH]c2cc1S(=O)(=O)Nc1ccc(-c2cc(F)cc(C(N)=O)c2)c(C(F)(F)F)c1` [Compound 363, 3-fluoro-5-[4-[(7-methyl-2,3-dioxo-1,4-dihydroquinoxalin-6-yl)sulfonylamino]-2-(trifluoromethyl)phenyl]benzamide], the EC50 in experiment [1] and in experiment [2] was 30 to 100 nM each time.

A word on the EC50: it is the concentration at which the effect is half-maximal. A high value points to weaker potency.
